US20260191838A1, “COMBINATIONS COMPRISING A MENIN-MLL INHIBITOR AND A BCL-2 INHIBITOR” (JANSSEN PHARMACEUTICA NV, priority 2022, published 2026)

Test system: MOLM-13 (KMT2A-r) cell line
Experiment: In vitro proliferation (spheroid confluence, Incucyte), Compound 51 with venetoclax and optionally azacitidine, MOLM-13
Assay type: cell-based, human
Protocol: 3b) In Vitro Proliferation—Menin-MLL Inhibitor in Combination with Venetoclax and Optionally, Azacitidine
The effect of Compound 51, alone or in combination with venetoclax, or in combination with venetoclax+azacitidine, was determined in proliferation assays using the MOLM-13 (KMT2A-r) cell line.
MOLM-13 cells were seeded in 96-well, round-bottom, ultra-low attachment plates. The following dilution series were used: Compound 51 at an initial concentration of 1 μM, followed by a 5- or 6-point, 4-fold serial dilution series; azacitidine at an initial concentration of 25 μM, followed by a 6-point, 5-fold serial dilution series; and venetoclax at an initial concentration of 3 μM, followed by a 5- or 6-point, 5-fold serial dilution series. In the combination treatments that included venetoclax, venetoclax was added to the cells 4 days after treatment with Compound 51 and/or azacitidine was initiated. The triplet combination of Compound 51, in a checkerboard titration design with azacitidine+venetoclax, was tested at the same concentrations.
The optimal cell seeding number (500 cells/well) was chosen based on growth curves to ensure linear growth throughout the entire experiment. The DMSO content was normalized to 0.3% and cells were incubated for 8 days at 37° C., 5% CO2. Spheroid-like growth was monitored in real-time by non-invasive live-cell imaging using the 4× objective of the Incucyte ZOOM live cell imaging system (Essen BioScience), and images were acquired on Day 8. The percent confluence, as a measure of spheroid size, was determined using an integrated analysis tool that is part of the Incucyte ZOOM software “IncuCyte ZOOM 2016B” (Essen BioScience). The percent confluence from the DMSO well was used as baseline response. Each experiment contained 4 replicates of each condition and the experiment was performed 3 times. Potential combination effects were analyzed for synergy using an R-based Biochemically Intuitive Generalized Loewe (BIGL) model implemented with a highest single agent (HSA) null model (Van der Borght 2017).

CC(=O)N1CCC(CN2CC[C@@H](Cc3cn(-c4ccc(F)cc4C(=O)N(C)C(C)C)c4cncc(C)c34)C2)CC1 [Compound 51]
Effect size (BIGL, HSA null model) (doublet: Compound 51 0.0002 μM, Venetoclax 0.0003 μM): 0.02
Effect size (BIGL, HSA null model) (doublet: Compound 51 0.0002 μM, Venetoclax 0.0016 μM): 0.01
Effect size (BIGL, HSA null model) (doublet: Compound 51 0.0002 μM, Venetoclax 0.008 μM): 0.05
Effect size (BIGL, HSA null model) (doublet: Compound 51 0.0002 μM, Venetoclax 0.04 μM): 0.02
Effect size (BIGL, HSA null model) (doublet: Compound 51 0.0002 μM, Venetoclax 0.2 μM): 0.08
Effect size (BIGL, HSA null model) (doublet: Compound 51 0.0002 μM, Venetoclax 1 μM): −0.05
Effect size (BIGL, HSA null model) (doublet: Compound 51 0.001 μM, Venetoclax 0.0003 μM): 0.01
Effect size (BIGL, HSA null model) (doublet: Compound 51 0.001 μM, Venetoclax 0.0016 μM): 0.03
Effect size (BIGL, HSA null model) (doublet: Compound 51 0.001 μM, Venetoclax 0.008 μM): 0.02
Effect size (BIGL, HSA null model) (doublet: Compound 51 0.001 μM, Venetoclax 0.04 μM): 0.00
Effect size (BIGL, HSA null model) (doublet: Compound 51 0.001 μM, Venetoclax 0.2 μM): 0.05
Effect size (BIGL, HSA null model) (doublet: Compound 51 0.001 μM, Venetoclax 1 μM): −0.05
Effect size (BIGL, HSA null model) (doublet: Compound 51 0.004 μM, Venetoclax 0.0003 μM): 0.05
Effect size (BIGL, HSA null model) (doublet: Compound 51 0.004 μM, Venetoclax 0.0016 μM): 0.04
Effect size (BIGL, HSA null model) (doublet: Compound 51 0.004 μM, Venetoclax 0.008 μM): 0.04
Effect size (BIGL, HSA null model) (doublet: Compound 51 0.004 μM, Venetoclax 0.04 μM): −0.03
Effect size (BIGL, HSA null model) (doublet: Compound 51 0.004 μM, Venetoclax 0.2 μM): 0.40
Effect size (BIGL, HSA null model) (doublet: Compound 51 0.004 μM, Venetoclax 1 μM): −0.09
Effect size (BIGL, HSA null model) (doublet: Compound 51 0.0156 μM, Venetoclax 0.0003 μM): −0.04
Effect size (BIGL, HSA null model) (doublet: Compound 51 0.0156 μM, Venetoclax 0.008 μM): −0.27
Effect size (BIGL, HSA null model) (doublet: Compound 51 0.0156 μM, Venetoclax 0.04 μM): −0.42
Effect size (BIGL, HSA null model) (doublet: Compound 51 0.0156 μM, Venetoclax 0.2 μM): −0.24
Effect size (BIGL, HSA null model) (doublet: Compound 51 0.0156 μM, Venetoclax 1 μM): −0.18
Effect size (BIGL, HSA null model) (doublet: Compound 51 0.0625 μM, Venetoclax 0.0003 μM): −0.01
Effect size (BIGL, HSA null model) (doublet: Compound 51 0.0625 μM, Venetoclax 0.0016 μM): −0.04
Effect size (BIGL, HSA null model) (doublet: Compound 51 0.0625 μM, Venetoclax 0.008 μM): −0.12
Effect size (BIGL, HSA null model) (doublet: Compound 51 0.0625 μM, Venetoclax 0.04 μM): −0.15
Effect size (BIGL, HSA null model) (doublet: Compound 51 0.0625 μM, Venetoclax 0.2 μM): −0.15
Effect size (BIGL, HSA null model) (doublet: Compound 51 0.0625 μM, Venetoclax 1 μM): −0.16
Effect size (BIGL, HSA null model) (doublet: Compound 51 0.25 μM, Venetoclax 0.0003 μM): 0.00
Effect size (BIGL, HSA null model) (doublet: Compound 51 0.25 μM, Venetoclax 0.0016 μM): 0.11
Effect size (BIGL, HSA null model) (doublet: Compound 51 0.25 μM, Venetoclax 0.008 μM): −0.05
Effect size (BIGL, HSA null model) (doublet: Compound 51 0.25 μM, Venetoclax 0.04 μM): −0.07
Effect size (BIGL, HSA null model) (doublet: Compound 51 0.25 μM, Venetoclax 0.2 μM): −0.13
Effect size (BIGL, HSA null model) (doublet: Compound 51 0.25 μM, Venetoclax 1 μM): −0.07
Effect size (BIGL, HSA null model) (doublet: Compound 51 1 μM, Venetoclax 0.0003 μM): −0.02
Effect size (BIGL, HSA null model) (doublet: Compound 51 1 μM, Venetoclax 0.0016 μM): −0.03
Effect size (BIGL, HSA null model) (doublet: Compound 51 1 μM, Venetoclax 0.008 μM): −0.07
Effect size (BIGL, HSA null model) (doublet: Compound 51 1 μM, Venetoclax 0.04 μM): −0.08
Effect size (BIGL, HSA null model) (doublet: Compound 51 1 μM, Venetoclax 0.2 μM): −0.07
Effect size (BIGL, HSA null model) (doublet: Compound 51 1 μM, Venetoclax 1 μM): −0.06
Effect size (BIGL, HSA null model) (triplet: Compound 51 0.001 μM, Venetoclax 0.0001 μM, Azacitidine 0.008 μM): 0.03
Effect size (BIGL, HSA null model) (triplet: Compound 51 0.001 μM, Venetoclax 0.0002 μM, Azacitidine 0.0016 μM): 0.03
Effect size (BIGL, HSA null model) (triplet: Compound 51 0.001 μM, Venetoclax 0.005 μM, Azacitidine 0.04 μM): 0.05
Effect size (BIGL, HSA null model) (triplet: Compound 51 0.001 μM, Venetoclax 0.024 μM, Azacitidine 0.2 μM): −0.02
Effect size (BIGL, HSA null model) (triplet: Compound 51 0.001 μM, Venetoclax 0.12 μM, Azacitidine 1 μM): 0.01
Effect size (BIGL, HSA null model) (triplet: Compound 51 0.001 μM, Venetoclax 0.6 μM, Azacitidine 5 μM): −0.03
Effect size (BIGL, HSA null model) (triplet: Compound 51 0.001 μM, Venetoclax 3 μM, Azacitidine 25 μM): 0.01
Effect size (BIGL, HSA null model) (triplet: Compound 51 0.004 μM, Venetoclax 0.0001 μM, Azacitidine 0.008 μM): 0.03
Effect size (BIGL, HSA null model) (triplet: Compound 51 0.004 μM, Venetoclax 0.0002 μM, Azacitidine 0.0016 μM): 0.04
Effect size (BIGL, HSA null model) (triplet: Compound 51 0.004 μM, Venetoclax 0.005 μM, Azacitidine 0.04 μM): 0.04
Effect size (BIGL, HSA null model) (triplet: Compound 51 0.004 μM, Venetoclax 0.024 μM, Azacitidine 0.2 μM): −0.05
Effect size (BIGL, HSA null model) (triplet: Compound 51 0.004 μM, Venetoclax 0.12 μM, Azacitidine 1 μM): −0.08
Effect size (BIGL, HSA null model) (triplet: Compound 51 0.004 μM, Venetoclax 0.6 μM, Azacitidine 5 μM): −0.03
Effect size (BIGL, HSA null model) (triplet: Compound 51 0.004 μM, Venetoclax 3 μM, Azacitidine 25 μM): 0.01
Effect size (BIGL, HSA null model) (triplet: Compound 51 0.0625 μM, Venetoclax 0.0002 μM, Azacitidine 0.0016 μM): 0.02
Effect size (BIGL, HSA null model) (triplet: Compound 51 0.25 μM, Venetoclax 0.0001 μM, Azacitidine 0.008 μM): −0.00
Effect size (BIGL, HSA null model) (triplet: Compound 51 0.25 μM, Venetoclax 0.0002 μM, Azacitidine 0.0016 μM): 0.00
Effect size (BIGL, HSA null model) (triplet: Compound 51 0.25 μM, Venetoclax 0.005 μM, Azacitidine 0.04 μM): 0.11
Effect size (BIGL, HSA null model) (triplet: Compound 51 0.25 μM, Venetoclax 0.024 μM, Azacitidine 0.2 μM): −0.07
Effect size (BIGL, HSA null model) (triplet: Compound 51 0.25 μM, Venetoclax 0.12 μM, Azacitidine 1 μM): −0.14
Effect size (BIGL, HSA null model) (triplet: Compound 51 0.25 μM, Venetoclax 0.6 μM, Azacitidine 5 μM): −0.06
Effect size (BIGL, HSA null model) (triplet: Compound 51 0.25 μM, Venetoclax 3 μM, Azacitidine 25 μM): 0.01
Effect size (BIGL, HSA null model) (triplet: Compound 51 1 μM, Venetoclax 0.0001 μM, Azacitidine 0.008 μM): −0.02
Effect size (BIGL, HSA null model) (triplet: Compound 51 1 μM, Venetoclax 0.0002 μM, Azacitidine 0.0016 μM): −0.01
Effect size (BIGL, HSA null model) (triplet: Compound 51 1 μM, Venetoclax 0.005 μM, Azacitidine 0.04 μM): −0.04
Effect size (BIGL, HSA null model) (triplet: Compound 51 1 μM, Venetoclax 0.024 μM, Azacitidine 0.2 μM): −0.08
Effect size (BIGL, HSA null model) (triplet: Compound 51 1 μM, Venetoclax 0.12 μM, Azacitidine 1 μM): −0.14
Effect size (BIGL, HSA null model) (triplet: Compound 51 1 μM, Venetoclax 0.6 μM, Azacitidine 5 μM): −0.05
Effect size (BIGL, HSA null model) (triplet: Compound 51 1 μM, Venetoclax 3 μM, Azacitidine 25 μM): 0.02
